These molecules were tested on Staphylococcus aureus (assay: Control: microbicidal activity of the amino acid or analogue alone (no glucose, MPO, glucose oxidase) in the presence of blood). Conditions: Staphylococcus aureus, 1 h; amino acid alone 5 mM; MPO 0; GO 0; no glucose; blood; without replication; read-out: Log Reduction 60 min.
Type: cell-based
From the text: As a control to determine the microbicidal activity of the amino acids alone, the foregoing procedure was followed without replication, except in the absence of glucose, MPO, and glucose oxidase.

Compound | log reduction at 5000 µM
N[C@@H](CS)C(=O)O [L-Cysteine] | 0
N[C@@H](Cc1ccc(O)cc1)C(=O)O [L-Tyrosine] | 0
COC(=O)[C@H](C)N [L-Ala methyl ester, L-Alanine methyl ester] | 0
CC(C)[C@H](N)C(=O)O [L-Valine] | 0

Same assay, conditions: Staphylococcus aureus, 1 h; amino acid analogue alone 5 mM; MPO 0; GO 0; no glucose; blood; read-out: Log Reduction 60 min

Compound | log reduction at 5000 µM
CCOC(=O)[C@@H](N)C(C)C.Cl [L-Valine ethyl ester hydrochloride] | 0
COC(=O)[C@@H](N)Cc1ccc(O)cc1.Cl [L-Tyrosine methyl ester hydrochloride] | 0

Same assay, conditions: amino acid alone 5 mM; MPO 0; GO 0; no glucose; blood; without replication

Compound | Average Viability CFU/ml 60 min [CFU/ml]
N[C@@H](CS)C(=O)O [L-Cysteine] | 22400000
N[C@@H](Cc1ccc(O)cc1)C(=O)O [L-Tyrosine] | 21600000
COC(=O)[C@H](C)N [L-Ala methyl ester, L-Alanine methyl ester] | 24300000
CC(C)[C@H](N)C(=O)O [L-Valine] | 23100000

Same assay, conditions: amino acid analogue alone 5 mM; MPO 0; GO 0; no glucose; blood

Compound | Average Viability CFU/ml 60 min [CFU/ml]
CCOC(=O)[C@@H](N)C(C)C.Cl [L-Valine ethyl ester hydrochloride] | 22300000
COC(=O)[C@@H](N)Cc1ccc(O)cc1.Cl [L-Tyrosine methyl ester hydrochloride] | 20900000

What follows are molecules tested on Staphylococcus aureus (assay: Microbicidal activity of the myeloperoxidase system (p-MPO, glucose oxidase, glucose) with amino acids in the presence of blood, CFU plate counts; synergy determination from these CFU). Conditions: MPO 25 μg/mL; AA 5 mM; 30 min.
Type: cell-based
In short: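 Staphylococcus aureus grown 24 hours in TSB at 35° C was washed in saline and added at a final 2-3×10^7 CFU per mL. The bacteria were mixed in 1 mL reactions with porcine myeloperoxidase, glucose oxidase, amino acids, 150 mM sodium chloride and 3% venous whole blood. Adding glucose to 150 mM started killing. After catalase addition, survivors were counted by serial dilution plating on TSA at 37° C for 24 hours.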

Compound | Log 10 (CFU + 1) Survivors
N[C@@H](Cc1ccc(O)cc1)C(=O)O [L-Tyrosine] | 7.3
COC(=O)[C@H](C)N [L-Ala methyl ester, L-Alanine methyl ester] | 7.3
CC(C)[C@H](N)C(=O)O [L-Valine] | 4.7

Same assay, conditions: MPO 25 μg/mL; AA 5 mM; 60 min

Compound | Log 10 (CFU + 1) Survivors
N[C@@H](Cc1ccc(O)cc1)C(=O)O [L-Tyrosine] | 7.1
COC(=O)[C@H](C)N [L-Ala methyl ester, L-Alanine methyl ester] | 0.0
CC(C)[C@H](N)C(=O)O [L-Valine] | 0.0

Same assay, conditions: MPO 25 μg/mL; AA […]; 30 min

Compound | Log 10 (CFU + 1) Survivors
N[C@@H](Cc1ccc(O)cc1)C(=O)O [L-Tyrosine] | 7.3
COC(=O)[C@H](C)N [L-Ala methyl ester, L-Alanine methyl ester] | 7.3
CC(C)[C@H](N)C(=O)O [L-Valine] | 4.8

Same assay, conditions: MPO 25 μg/mL; AA […]; 60 min

Compound | Log 10 (CFU + 1) Survivors
N[C@@H](Cc1ccc(O)cc1)C(=O)O [L-Tyrosine] | 7.0
COC(=O)[C@H](C)N [L-Ala methyl ester, L-Alanine methyl ester] | 0.0
CC(C)[C@H](N)C(=O)O [L-Valine] | 0.0

Same assay, conditions: MPO 100 μg/mL; AA 5 mM; 30 min

Compound | Log 10 (CFU + 1) Survivors
N[C@@H](Cc1ccc(O)cc1)C(=O)O [L-Tyrosine] | 7.3
COC(=O)[C@H](C)N [L-Ala methyl ester, L-Alanine methyl ester] | 0.0
CC(C)[C@H](N)C(=O)O [L-Valine] | 0.0

Same assay, conditions: MPO 100 μg/mL; AA 5 mM; 60 min

Compound | Log 10 (CFU + 1) Survivors
N[C@@H](Cc1ccc(O)cc1)C(=O)O [L-Tyrosine] | 5.8
COC(=O)[C@H](C)N [L-Ala methyl ester, L-Alanine methyl ester] | 0.0
CC(C)[C@H](N)C(=O)O [L-Valine] | 0.0

Same assay, conditions: MPO 100 μg/mL; AA 20 mM; 30 min

Compound | Log 10 (CFU + 1) Survivors
N[C@@H](Cc1ccc(O)cc1)C(=O)O [L-Tyrosine] | 7.3
COC(=O)[C@H](C)N [L-Ala methyl ester, L-Alanine methyl ester] | 0.0
CC(C)[C@H](N)C(=O)O [L-Valine] | 0.0

Same assay, conditions: MPO 100 μg/mL; AA 20 mM; 60 min

Compound | Log 10 (CFU + 1) Survivors
N[C@@H](Cc1ccc(O)cc1)C(=O)O [L-Tyrosine] | 7.2
COC(=O)[C@H](C)N [L-Ala methyl ester, L-Alanine methyl ester] | 0.0
CC(C)[C@H](N)C(=O)O [L-Valine] | 0.0

Same assay, conditions: Table 2; amino acid 5 mM (none: 0 mM); MPO 38 U/ml; GO 33.3 U/ml; blood

Compound | Average Viability CFU/ml 60 min [CFU/ml] | Log 10 (CFU + 1) Survivors 60 min | Log Reduction 60 min
N[C@@H](CS)C(=O)O [L-Cysteine] | 17400000 | 7.2 | 0.1
CC(C)[C@H](N)C(=O)O [L-Valine] | 0 | 0.0 | 7.4

Same assay, conditions: Table 3; amino acid 5 mM (none: 0 mM); MPO 38 U/ml; GO 33.3 U/ml; blood

Compound | Average Viability CFU/ml 60 min [CFU/ml] | Log 10 (CFU + 1) Survivors 60 min | Log Reduction 60 min
N[C@@H](Cc1ccc(O)cc1)C(=O)O [L-Tyrosine] | 630000 | 5.8 | 1.5

Same assay, conditions: Table 4; amino acid 5 mM (none: 0 mM); MPO 38 U/ml; GO 33.3 U/ml; blood

Compound | Average Viability CFU/ml 60 min [CFU/ml] | Log Reduction 60 min
COC(=O)[C@H](C)N [L-Ala methyl ester, L-Alanine methyl ester] | 0 | 7.4

Same assay, conditions: Table 7; amino acid analogue 5 mM; MPO 38 U/ml; GO 33.3 U/ml; blood

Compound | Average Viability CFU/ml 60 min [CFU/ml] | Log Reduction 60 min
CCOC(=O)[C@@H](N)C(C)C.Cl [L-Valine ethyl ester hydrochloride] | 0 | 7.4
COC(=O)[C@@H](N)Cc1ccc(O)cc1.Cl [L-Tyrosine methyl ester hydrochloride] | 87000 | 2.4

Same assay, conditions: Table 10; single amino acid 2.5 mM; MPO 4.7 U/ml, GO 4.2 U/ml; in the presence of blood; 50 min

Compound | Average Viability CFU/ml 50 min [CFU/ml] | Log Reduction 50 min
COC(=O)[C@H](C)N [L-Ala methyl ester, L-Alanine methyl ester] | 7250000 | 0.5
CC(C)[C@H](N)C(=O)O [L-Valine] | 104500 | 2.4

Same assay, conditions: Table 13; single amino acid 2.5 mM; MPO 4.7 U/ml, GO 4.2 U/ml; in the presence of blood; 50 min

Compound | Average Viability CFU/ml 50 min [CFU/ml] | Log Reduction 50 min
N[C@@H](Cc1ccc(O)cc1)C(=O)O [L-Tyrosine] | 890000 | 1.4

Same assay, conditions: Table 14; single amino acid 2.5 mM; MPO 4.7 U/ml, GO 4.2 U/ml; in the presence of blood; 50 min

Compound | Average Viability CFU/ml 50 min [CFU/ml] | Log Reduction 50 min
N[C@@H](Cc1ccc(O)cc1)C(=O)O [L-Tyrosine] | 1450000 | 1.3

Same assay, conditions: Table 19; amino acid (racemic, L- or D-form) 2.5 mM; MPO 4.7 U/ml, GO 4.2 U/ml; 50 min

Compound | Average Viability CFU/ml 50 min [CFU/ml] | Log Reduction 50 min
CC(C)[C@H](N)C(=O)O [L-Valine] | 104500 | 2.4

Same assay, conditions: single amino acid 2.5 mM; MPO 4.7 U/ml; GO 4.2 U/ml; blood

Compound | Average Viability CFU/ml 50 min [CFU/ml] | Log Reduction 50 min
CC(C)[C@H](N)C(=O)O [L-Valine] | 104500 | 2.4

Each molecule was assayed on E. coli (assay: MIC, modified CLSI broth microdilution). Conditions: E. coli ATCC 25922; inoculum prepared in Diluent solution.
Type: cell-based, Escherichia coli
From the text: (§1) All clinical isolates were obtained from the culture collection of Eurofins Medinet Anti-Infective Services (Herndon, Va.), and represent diverse geographical regions. They were originally derived from clinical specimens and identified using standard microbiological methods (see Table 33 below for details). Escherichia coli ATCC 25922, Staphylococcus aureus ATCC 25923, S. aureus ATCC 29213, Pseudomonas aeruginosa ATCC 27853, and Enterococcus faecalis ATCC 29212 were used as quality control strains for the Enhanced MPO Solution and comparator agents to validate the modified Clinical and Laboratory Standards Institute (CLSI, formally NCCLS) broth microdilution method.
(§2) Modifications were made to the standard broth microdilution method to accommodate the rapid in vitro activity of the Enhanced MPO Solution as described below. Each antimicrobial agent and Concentrate solution was diluted in double strength cation-adjusted Mueller-Hinton Broth (CAMHB) and dispensed in mircrodilution trays. All β-hemolytic streptococci were tested in double strength CAMHB supplemented with 5% lysed horse blood. Isolates were prepared by suspending several colonies (four to six) from an overnight culture on Trypticase Soy Agar (TSA) with 5% sheep blood into sterile saline and the density adjusted to a 0.5 McFarland standard (˜10^8 CFU/ml). Standardized bacterial suspensions were further diluted in double strength Diluent solution so that approximately 5×10^5 CFU/ml was mixed with serial drug dilutions. The addition of Diluent solution to the Concentrate solution activates the enzyme system, which in turn exerts its rapid mode of action. The microdilution trays were incubated in ambient air at 35° C. for 18 to 24 h.
(§3) MIC ranges were established for the Enhanced MPO Solution by testing over 20 replicates of one lot of the Enhanced MPO Solution against S. aureus ATCC 29213 and E. coli ATCC 25922. Quality control parameters were then determined for the Enhanced MPO Solution by testing three lots of the Concentrate solution used for preparation of the final Enhanced MPO Solution formulation. Testing was performed in duplicate against S. aureus ATCC 29213 and E. coli ATCC 25922. The effects of modifying the standard broth microdilution test were also assessed with antibiotics with known quality control limits to validate the CLSI broth microdilution method.

Compound | MIC by the modified method versus published quality control ranges
Cc1nnc(SCC2=C(C(=O)O)N3C(=O)[C@@H](NC(=O)Cn4cnnn4)[C@H]3SC2)s1 [cefazolin] | within previously published quality control ranges

The molecules below were run on S. aureus (assay: MIC, modified CLSI broth microdilution). Conditions: S. aureus ATCC 29213; inoculum prepared in Diluent solution.
Type: cell-based, Staphylococcus aureus
From the text: as §1, §2, §3

Compound | MIC by the modified method versus published quality control ranges
Cc1nnc(SCC2=C(C(=O)O)N3C(=O)[C@@H](NC(=O)Cn4cnnn4)[C@H]3SC2)s1 [cefazolin] | within previously published quality control ranges
